Data taken from ChEMBL document CHEMBL4033633, “N-(Aroyl)-N-(arylmethyloxy)-α-alanines: Selective inhibitors of aldose reductase” (Bioorg Med Chem, 2017).

Assays:
[1] = molecular target: Aldo-keto reductase family 1 member B1 (Rattus norvegicus, UniProt P07943); assay: Inhibition of Sprague-Dawley rat lens ALR2 using D,L-glyceraldehyde as substrate preincubated for 10 mins followed by substrate addition measured for 5 mins by spectrophotometric method
[2] = molecular target: Aldo-keto reductase family 1 member A1 (Rattus norvegicus, UniProt P51635); assay: Inhibition of Sprague-Dawley rat kidney ALR1 using sodium D-glucuronate as substrate by spectrophotometric method
[3] = molecular target: Aldo-keto reductase family 1 member B1 (Bos taurus, UniProt P16116); assay: Inhibition of bovine lens ALR2 using D,L-glyceraldehyde as substrate measured for 4 mins by spectrophotometric method

Chain of Aldo-keto reductase family 1 member A1 (P51635 whole entry, looked up): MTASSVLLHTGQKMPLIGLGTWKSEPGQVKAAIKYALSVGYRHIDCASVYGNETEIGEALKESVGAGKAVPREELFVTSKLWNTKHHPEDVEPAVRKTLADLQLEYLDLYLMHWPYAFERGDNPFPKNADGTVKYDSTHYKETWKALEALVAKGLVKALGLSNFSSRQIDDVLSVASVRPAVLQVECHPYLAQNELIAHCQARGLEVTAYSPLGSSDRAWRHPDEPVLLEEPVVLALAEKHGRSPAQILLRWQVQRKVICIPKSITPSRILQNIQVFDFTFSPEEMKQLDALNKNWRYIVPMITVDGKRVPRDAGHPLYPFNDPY

Row | IC50 [1] [µM] | IC50 [2] [µM] | IC50 [3] [µM] | SMILES
1 | > 100 | > 100 |  | COc1ccc(C(=O)N(OCc2cccc(Cl)c2)C(C)C(=O)O)cc1 (stereo not drawn)
2 | 4.88 | > 100 |  | CC(C(=O)O)N(OCc1ccccc1Cl)C(=O)c1ccccc1 (stereo not drawn)
3 | 2.69 | > 100 |  | CC(C(=O)O)N(OCc1ccc(Cl)cc1)C(=O)c1ccccc1 (stereo not drawn)
4 |  |  | 3.5 | COc1ccc(C(=O)N(CC(=O)O)OCc2ccccc2)cc1
5 | 2.38 | > 100 |  | COc1ccc(C(=O)N(OCc2ccccc2Cl)C(C)C(=O)O)cc1 (stereo not drawn)
6 | 46.7 | > 100 |  | CC(C(=O)O)N(OCc1ccccc1)C(=O)c1ccccc1 (stereo not drawn)
7 | 10.1 | > 100 |  | COc1ccc(C(=O)N(OCc2ccc(Cl)cc2)C(C)C(=O)O)cc1 (stereo not drawn)
8 | 12.5 | > 100 |  | CC(C(=O)O)N(OCc1cccc(Cl)c1)C(=O)c1ccccc1 (stereo not drawn)
9 | > 100 | > 100 |  | COc1ccc(C(=O)N(OCc2ccccc2)C(C)C(=O)O)cc1 (stereo not drawn)
10 |  |  | 6.3 | COc1ccc(C(=O)N(CC(=O)O)OCc2ccc(Cl)cc2)cc1
